According to PubChem BioAssay AID330 (DTP/NCI, 2004):
Where “and” joins values, the source holds several entries; their conditions need not be identical. Equal values may be shown once. Inconclusive results and toxic doses are left out.

System: P388 leukemia ip, CD2F1 mice, survival T/C
Test: NCI In Vivo Anticancer Drug Screen. Data for tumor model P388 Leukemia (intraperitoneal) in CD2F1 (CDF1) mice
Conditions: endpoint: median survival time, higher = longer survival
How it was run: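 Mice carrying the transplanted tumor received test compound or vehicle. Survival was recorded in each group, and the value is the treated-group measurement divided by that of the vehicle-treated control group.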

[1] = dose: 100.0 mg/kg/injection, schedule: Q01DX009 (ip), vehicle: saline with Tween-80
[2] = dose: 200.0 mg/kg/injection, schedule: Q01DX009 (ip), vehicle: saline with Tween-80
[3] = dose: 400.0 mg/kg/injection, schedule: Q01DX009 (ip), vehicle: saline with Tween-80
[4] = dose: 6.25 mg/kg/injection, schedule: Q01DX009 (ip), vehicle: water
[5] = dose: 25.0 mg/kg/injection, schedule: Q01DX009 (ip), vehicle: Klucel (hydroxypropylcellulose) (HPC)
[6] = dose: 50.0 mg/kg/injection, schedule: Q01DX009 (ip), vehicle: Klucel (hydroxypropylcellulose) (HPC)

For `O=[N+]([O-])c1ccc2nc(CC(O)(C(F)(F)F)C(F)(F)F)ccc2c1`, the T/C [1] was 115 % of control, the T/C [2] was 90 % of control and the T/C [3] was 95 % of control.
In the case of `COc1cc2c(cc1C(C)c1cc(C)c(OC)c(C)c1)OCO2` (stereo unspecified), the T/C (dose: 50.0 mg/kg/injection, schedule: Q01DX005 (ip), vehicle: saline with Tween-80) is reported as 100 % of control, the T/C (dose: 100.0 mg/kg/injection, schedule: Q01DX005 (ip), vehicle: saline with Tween-80) is reported as 106 % of control and the T/C (dose: 200.0 mg/kg/injection, schedule: Q01DX005 (ip), vehicle: saline with Tween-80) is reported as 101 % of control.
With `COc1cccc2c1C(=O)c1c(O)c3c(c(O)c1C2=O)C[C@@](O)(C(C)O)C[C@@H]3OC1CC(N(Cc2ccccc2)Cc2ccccc2)C(O)C(C)O1` (stereo partly specified) the T/C (dose: 4.7 mg/kg/injection, schedule: Q04DX003 (ip), vehicle: water) was 121 % of control, the T/C [4] was 165 % of control and the T/C (dose: 12.5 mg/kg/injection, schedule: Q01DX009 (ip), vehicle: water) was 228 % of control and 233 % of control. The T/C (dose: 25.0 mg/kg/injection, schedule: Q01DX009 (ip), vehicle: water) was 97 % of control, the T/C (dose: 25.0 mg/kg/injection, schedule: Q04DX003 (ip), vehicle: water) was 194 % of control and the T/C (dose: 37.5 mg/kg/injection, schedule: Q04DX003 (ip), vehicle: water) was 106 % of control. For the same molecule, the T/C (dose: 50.0 mg/kg/injection, schedule: Q04DX003 (ip), vehicle: water) was 233 % of control and the T/C (dose: 75.0 mg/kg/injection, schedule: Q04DX003 (ip), vehicle: water) was 116 % of control.
With `CC1CN(C)CCN1C` (stereo unspecified) the T/C [1] was 100 % of control, the T/C [2] was 100 % of control and the T/C [3] was 95 % of control.
For `O=S(=O)(CCCl)c1ccc2ccccc2c1`, the T/C (dose: 12.5 mg/kg/injection, schedule: Q01DX009 (ip), vehicle: Klucel (hydroxypropylcellulose) (HPC)) was 118 % of control and 90 % of control, the T/C [5] was 114 % of control and the T/C [6] was 106 % of control and 117 % of control.
In the case of `NC(=S)c1cccc(C=O)n1`, the T/C (dose: 25.0 mg/kg/injection, schedule: Q01DX009 (ip), vehicle: saline with Tween-80) is reported as 99 % of control, the T/C (dose: 50.0 mg/kg/injection, schedule: Q01DX009 (ip), vehicle: saline with Tween-80) is reported as 99 % of control and the T/C (dose: 50.0 mg/kg/injection, schedule: Q04DX003 (ip), vehicle: Klucel (hydroxypropylcellulose) (HPC)) is reported as 110 % of control. The T/C [1] was 97 % of control, the T/C (dose: 100.0 mg/kg/injection, schedule: Q04DX003 (ip), vehicle: Klucel (hydroxypropylcellulose) (HPC)) was 112 % of control and the T/C (dose: 200.0 mg/kg/injection, schedule: Q04DX003 (ip), vehicle: Klucel (hydroxypropylcellulose) (HPC)) was 114 % of control.
In the case of `CCCCCCCCCCCCCCCCCC(=O)OCC(=O)OCC(=O)[C@]1(O)Cc2c(O)c3c(c(O)c2[C@@H](OC2CC(N)C(O)C(C)O2)C1)C(=O)c1c(OC)cccc1C3=O` (stereo partly specified), the T/C (dose: 0.39 mg/kg/injection, schedule: Q01DX009 (ip), vehicle: water) is reported as 150 % of control, the T/C (dose: 0.78 mg/kg/injection, schedule: Q01DX009 (ip), vehicle: water) is reported as 157 % of control and the T/C (dose: 1.56 mg/kg/injection, schedule: Q01DX009 (ip), vehicle: water) is reported as 180 % of control and 194 % of control. For the same molecule, the T/C (dose: 3.13 mg/kg/injection, schedule: Q01DX009 (ip), vehicle: water) was 200 % of control and 203 % of control and the T/C [4] was 93 % of control and 98 % of control.
`COc1ccc(/C=N\N=C(/[O-])c2ccccc2O)cc1.COc1ccc(/C=N\N=C(/[O-])c2ccccc2O)cc1.[Mn+2].[OH3+].[OH3+]` was tested, and the T/C (dose: 50.0 mg/kg/injection, schedule: Q04DX002 (ip), vehicle: saline with Tween-80) was 107 % of control, the T/C (dose: 100.0 mg/kg/injection, schedule: Q04DX002 (ip), vehicle: saline with Tween-80) was 108 % of control and the T/C (dose: 200.0 mg/kg/injection, schedule: Q04DX002 (ip), vehicle: saline with Tween-80) was 114 % of control.
In the case of `CC(C)(C#N)NCCCCCCNC(C)(C)C#N`, the T/C (dose: 50.0 mg/kg/injection, schedule: Q01DX005 (ip), vehicle: Klucel (hydroxypropylcellulose) (HPC)) is reported as 96 % of control, the T/C (dose: 100.0 mg/kg/injection, schedule: Q01DX005 (ip), vehicle: Klucel (hydroxypropylcellulose) (HPC)) is reported as 93 % of control and the T/C (dose: 200.0 mg/kg/injection, schedule: Q01DX005 (ip), vehicle: Klucel (hydroxypropylcellulose) (HPC)) is reported as 100 % of control.
For `CCCCCCCCCCCCCCCCCCN(CCCCCCCCCCCCCCCCCC)c1ccc(/C=C/c2ccnc3ccccc23)cc1`, the T/C [5] was 104 % of control, the T/C [6] was 95 % of control and the T/C (dose: 100.0 mg/kg/injection, schedule: Q01DX009 (ip), vehicle: Klucel (hydroxypropylcellulose) (HPC)) was 95 % of control. For the same molecule, the T/C (dose: 200.0 mg/kg/injection, schedule: Q01DX009 (ip), vehicle: Klucel (hydroxypropylcellulose) (HPC)) was 104 % of control.
